Experimental data as given in patent US7659289B2, “Hydroxyethylene-based β-secretase inhibitors and use thereof” (CoMentis, Inc., priority 2004, dated 2010).

What was measured:
[1] = tested on: Aβ production; experiment: Cellular Aβ IC50 determination (Aβ40 sandwich ELISA); format: cell-based; conditions: Cricetulus griseus; Aβ40, Chinese hamster ovary cells over-expressing human APP695 with London and Swedish mutations, 24 h incubation
Experimental: The potency of compounds against memapsin 2 activity was determined in a cellular assay of Aβ production. […] Chinese hamster ovary cells that over-express human APP695 with the London and Swedish mutations were seeded in multi-well plates at 10% confluency. Compounds were dissolved in DMSO to concentrations near 1 mM, and diluted into culture media to a final concentration near 4 μM (final 0.4% DMSO). Compounds were diluted serially and applied to cells in multi-well plates 48 h after seeding. Incubation was continued in 5% CO2 at 37 degrees C. for 24 h. Aliquots were removed and assayed for Aβ40 content using a sandwich ELISA (BioSource International). Amount of Aβ40 over the range of concentration of compounds, relative to control incubations, were fit to a 4-parameter IC50 model.

[2] = target: memapsin 2 (Homo sapiens, UniProt P56817); experiment: Inhibition of memapsin 2 beta-secretase activity toward fluorogenic substrate FS-2; format: biochemical; conditions: pH 4, 37° C., 20 minutes pre-incubation, fluorogenic substrate FS-2, tight-binding model; read-out: M2 Ki
[3] = target: Cathepsin D (Homo sapiens, UniProt P07339); experiment: Inhibition of cathepsin D activity (MALDI-TOF, substrate peptide […]); format: biochemical; conditions: pH 4.1, 37 degrees C., read-out: Cath D Ki
Sequence of Cathepsin D (P07339 65-412, species assumed): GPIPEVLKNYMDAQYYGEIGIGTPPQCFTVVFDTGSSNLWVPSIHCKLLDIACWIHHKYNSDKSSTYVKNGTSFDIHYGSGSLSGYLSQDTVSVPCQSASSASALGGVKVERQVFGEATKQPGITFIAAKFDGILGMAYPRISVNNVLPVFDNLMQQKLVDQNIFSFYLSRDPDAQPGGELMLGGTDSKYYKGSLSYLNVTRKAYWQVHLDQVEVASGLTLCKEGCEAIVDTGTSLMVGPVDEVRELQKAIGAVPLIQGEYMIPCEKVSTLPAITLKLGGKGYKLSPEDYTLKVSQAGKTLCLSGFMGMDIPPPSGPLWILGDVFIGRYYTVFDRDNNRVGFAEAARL

Sequence of memapsin 2 (P56817 46-501): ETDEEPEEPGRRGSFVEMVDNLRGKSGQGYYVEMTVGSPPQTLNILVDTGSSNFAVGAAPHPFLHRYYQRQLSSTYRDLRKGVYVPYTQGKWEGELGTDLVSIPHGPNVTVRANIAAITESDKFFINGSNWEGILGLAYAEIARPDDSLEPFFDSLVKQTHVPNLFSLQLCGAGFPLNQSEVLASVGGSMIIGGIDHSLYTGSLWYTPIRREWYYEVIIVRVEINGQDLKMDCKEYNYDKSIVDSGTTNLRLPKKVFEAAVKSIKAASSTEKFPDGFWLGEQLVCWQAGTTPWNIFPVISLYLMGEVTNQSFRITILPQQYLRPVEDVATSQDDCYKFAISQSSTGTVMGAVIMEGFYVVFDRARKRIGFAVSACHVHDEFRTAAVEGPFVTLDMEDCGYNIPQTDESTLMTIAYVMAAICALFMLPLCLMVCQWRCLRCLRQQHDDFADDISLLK

IC50 [1] [nM] | Ki [2] [nM] | Ki [3] [nM] | SMILES
6000 to 100000 | 100 to 600 | < 100 | Cc1cc(C)n(CC(N=[N+]=[N-])C(=O)N[C@@H](CNC(=O)OC(C)(C)C)C(=O)N[C@@H](CC(C)C)[C@@H](O)C[C@@H](C)C(=O)N[C@H](C(=O)NCC(C)C)C(C)C)n1 (stereo partly drawn) [tert-butyl (2S)-2-(2-azido-3-(3,5-dimethyl-1H-pyrazol-1-yl)propanamido)-3-((4S,5S,7R)-5-hydroxy-8-((S)-1-(isobutylamino)-3-methyl-1-oxobutan-2-ylamino)-2,7-dimethyl-8-oxooctan-4-ylamino)-3-oxopropylcarbamate]
> 100000 | 100 to 600 | < 100 | COC(Cn1nc(C)cc1C)C(=O)N[C@@H](CNC(=O)OC(C)(C)C)C(=O)N[C@@H](CC(C)C)[C@@H](O)C[C@@H](C)C(=O)N[C@H](C(=O)NCC(C)C)C(C)C (stereo partly drawn) [tert-butyl (2S)-2-(3-(3,5-dimethyl-1H-pyrazol-1-yl)-2-methoxypropanamido)-3-((4S,5S,7R)-5-hydroxy-8-((S)-1-(isobutylamino)-3-methyl-1-oxobutan-2-ylamino)-2,7-dimethyl-8-oxooctan-4-ylamino)-3-oxopropylcarbamate]
< 6000 | < 100 | < 100 | Cc1csc(COC(=O)NC[C@H](NC(=O)[C@@H](C)Cc2nc(C)cs2)C(=O)N[C@@H](CC(C)C)[C@@H](O)C[C@@H](C)C(=O)N[C@H](C(=O)NCC(C)C)C(C)C)n1 [(4-methylthiazol-2-yl)methyl (S)-3-((4S,5S,7R)-5-hydroxy-8-((S)-1-(isobutylamino)-3-methyl-1-oxobutan-2-ylamino)-2,7-dimethyl-8-oxooctan-4-ylamino)-2-((S)-2-methyl-3-(4-methylthiazol-2-yl)propanamido)-3-oxopropylcarbamate]
6000 to 100000 | < 100 | < 100 | Cc1cc(C)n(C[C@H](C)C(=O)N[C@@H](CNC(=O)O[C@H]2CCOC2)C(=O)N[C@@H](CC(C)C)[C@@H](O)C[C@@H](C)C(=O)N[C@H](C(=O)NCC(C)C)C(C)C)n1 [(S)-tetrahydrofuran-3-yl (S)-2-((S)-3-(3,5-dimethyl-1H-pyrazol-1-yl)-2-methylpropanamido)-3-((4S,5S,7R)-5-hydroxy-8-((S)-1-(isobutylamino)-3-methyl-1-oxobutan-2-ylamino)-2,7-dimethyl-8-oxooctan-4-ylamino)-3-oxopropylcarbamate]
< 6000 | < 100 | < 100 | Cc1csc(C[C@H](C)C(=O)N[C@@H](CNS(C)(=O)=O)C(=O)N[C@@H](CC(C)C)[C@@H](O)C[C@@H](C)C(=O)N[C@H](C(=O)NCC(C)C)C(C)C)n1 [(2R,4S,5S)-4-hdroxy-N-((S)-1-(isobutylamino)-3-methyl-1-oxobutan-2-yl)-2,7-dimethyl-5-((S)-2-((S)-2-methyl-3-(4-methylthiazol-2-yl)propanamido)-3-(methylsulfonamido)propanamido)octanamide]
6000 to 100000 | < 100 | < 100 | CC[C@@H](Cn1nc(C)cc1C)C(=O)N[C@@H](CNC(=O)OC(C)(C)C)C(=O)N[C@@H](CC(C)C)[C@@H](O)C[C@@H](C)C(=O)N[C@H](C(=O)NCC(F)(F)F)C(C)C [tert-butyl (S)-2-((S)-2-((3,5-dimethyl-1H-pyrazol-1-yl)methyl)butanamido)-3-((4S,5S,7R)-5-hydroxy-2,7-dimethyl-8-((S)-3-methyl-1-oxo-1-(2,2,2-trifluoroethylamino)butan-2-ylamino)-8-oxooctan-4-ylamino)-3-oxopropylcarbamate]
< 6000 | < 100 | 100 to 600 | Cc1csc(C[C@H](C)C(=O)N[C@@H](CNC(=O)OC(C)(C)C)C(=O)N[C@@H](CC(C)C)[C@@H](O)C[C@@H](C)C(=O)N[C@H](C(=O)NCc2ccncc2)C(C)C)n1 [tert-butyl (S)-3-(4S,5S,7R)-hydromxy-2,7-dimethyl-8-((S)-3-methyl-1-oxo-1-(pyridin-4-ylmethylamino)butan-2-ylamino)-8-oxooctan-4-ylamino)-2-((S)-2-methyl-3-(4-methylthiazol-2-yl)propanamido)-3-oxopropylcarbamate]
< 6000 | < 100 | < 100 | COCCOC(=O)NC[C@H](NC(=O)[C@@H](C)Cc1nc(C)cs1)C(=O)N[C@@H](CC(C)C)[C@@H](O)C[C@@H](C)C(=O)N[C@H](C(=O)NCC(C)C)C(C)C [2-methoxyethyl (S)-3-((4S,5S,7R)-5-hydroxy-8-((S)-1-(isobutylamino)-3-methyl-1-oxobutan-2-ylamino)-2,7-dimethyl-8-oxooctan-4-ylamino)-2-((S)-2-methyl-3-(4-methylthiazol-2-yl)propanamido)-3-oxopropylcarbamate]
6000 to 100000 | 100 to 600 | 100 to 600 | Cc1csc(C[C@H](C)C(=O)N[C@@H](CN)C(=O)N[C@@H](CC(C)C)[C@@H](O)C[C@@H](C)C(=O)N[C@H](C(=O)NCC(C)C)C(C)C)n1 [(2R,4S,5S)-5-((S)-3-amino-2-((S)-2-methyl-3-(4-methylthiazol-2-yl)propanamido)propanamido)-4-hydroxy-N-((S)-1-(isobutylamino)-3-methyl-1-oxobutan-2-yl)-2,7-dimethyloctanamide]
< 6000 | < 100 | < 100 | CC[C@@H](Cn1nc(C)cc1C)C(=O)N[C@@H](CNC(=O)OC(C)(C)C)C(=O)N[C@@H](CC(C)C)[C@@H](O)C[C@@H](C)C(=O)N[C@H](C(=O)NCC(C)C)C(C)C [tert-butyl (S)-2-((S)-2-((3,5-dimethyl-1H-pyrazol-1-yl)methyl)butanamido)-3-((4S,5S,7R)-5-hydroxy-8-((S)-1-(isobutylamino)-3-methyl-1-oxobutan-2-ylamino)-2,7-dimethyl-8-oxooctan-4-ylamino)-3-oxopropylcarbamate]
6000 to 100000 | < 100 | 100 to 600 | CC(=O)NC[C@H](NC(=O)[C@@H](C)Cc1nc(C)cs1)C(=O)N[C@@H](CC(C)C)[C@@H](O)C[C@@H](C)C(=O)N[C@H](C(=O)NCC(C)C)C(C)C [(2R,4S,5S)-5-((S)-3-acetamido-2-((S)-2-methyl-3-(4-methylthiazol-2-yl)propanamido)propanamido)-4-hydroxy-N-((S)-1-(isobutylamino)-3-methyl-1-oxobutan-2-yl)-2,7-dimethyloctanamide]
6000 to 100000 | < 100 |  | Cc1csc(C[C@H](C)C(=O)N[C@@H](CNC(=O)OC(C)(C)C)C(=O)N[C@@H](Cc2cc(F)cc(F)c2)[C@@H](O)C[C@@H](C)C(=O)N[C@H](C(=O)NCC(C)C)C(C)C)n1 [tert-butyl (S)-3-((2S,3S,5R)-1-(3,5-difluorophenyl)-3-hydroxy-6-((S)-1-(isobutylamino)-3-methyl-1-oxobutan-2-ylamino)-5-methyl-6-oxohexan-2-ylamino)-2-((S)-2-methyl-3-(4-methylthiazol-2-yl)propanamido)-3-oxopropylcarbamate]
< 6000 | < 100 | < 100 | Cc1csc(C[C@H](C)C(=O)N[C@@H](CNC(=O)O[C@H]2CCOC2)C(=O)N[C@@H](CC(C)C)[C@@H](O)C[C@@H](C)C(=O)N[C@H](C(=O)NCC(C)C)C(C)C)n1 [(S)-tetrahydrofuran-3-yl(S)-3-((4S,5S,7R)-5-hydroxy-8-((S)-1-(isobutylamino)-3-methyl-1-oxobutan-2-ylamino)2,7-dimethyl-8-oxooctan-4-ylamino)-2-((S)-2-methyl-3-(4-methylthiazol-2-yl)propanamido)-3-oxopropylcarbamate]
< 6000 | < 100 | < 100 | Cc1nc(C[C@H](C)C(=O)N[C@@H](CNC(=O)OC(C)(C)C)C(=O)N[C@@H](CC(C)C)[C@@H](O)C[C@@H](C)C(=O)N[C@H](C(=O)NCC(C)C)C(C)C)c(C)o1 [tert-butyl (S)-2-((S)-3-(2,5-dimethyloxazol-4-yl)-2-methylpropanamido)-3-((4S,5S,7R)-5-hydroxy-8-((S)-1-(isobutylamino)-3-methyl-1-oxobutan-2-ylamino)-2,7-dimethyl-8-oxooctan-4-ylamino)-3-oxopropylcarbamate]
6000 to 100000 | 100 to 600 |  | Cc1csc(C[C@H](C)C(=O)N[C@@H](CN(C)S(C)(=O)=O)C(=O)N[C@@H](CC(C)C)[C@@H](O)C[C@@H](C)C(=O)N[C@H](C(=O)NCC(C)C)C(C)C)n1 [(2R,4S,5S)-4-hydroxy-N-((S)-1-(isobutylamino)-3-methyl-1-oxobutan-2-yl)-2,7-dimethyl-5-((S)-2-((S)-2-methyl-3-(4-methylthiazol-2-yl)propanamido)-3-(N-methylmethylsulfonamido)propanamido)octanamide]
< 6000 | < 100 |  | CC[C@@H](Cn1nc(C)cc1C)C(=O)N[C@@H](CNC(=O)OC(C)(C)C)C(=O)N[C@@H](CC(C)C)[C@@H](O)C[C@@H](C)C(=O)N[C@H](C(=O)NCc1ccncc1)C(C)C [tert-butyl (S)-2-((S)-2-((3,5-dimethyl-1H-pyrazol-1-yl)methyl)butanamido)-3-((4S,5S,7R)-5-hydroxy-2,7-dimethyl-8-((S)-3-methyl-1-oxo-1-(pyridin-4-ylmethylamino)butan-2-ylamino)-8-oxooctan-4-ylamino)-3-oxopropylcarbamate]
